Assay results taken from ChEMBL document CHEMBL5236576, “Discovery of a potent M5 antagonist with improved clearance profile. Part 2: Pyrrolidine amide-based antagonists” (Bioorg Med Chem Lett, 2022).
The source made the active and inactive calls. No cut-off for these calls is given here.

What was measured:
[1] = molecular target: T1, Muscarinic acetylcholine receptor M5 (Homo sapiens, UniProt P08912); test: (§1) Antagonist activity at human muscarinic M5 receptor expressed in CHO cells in the presence of acetylcholine by calcium mobilisation assay; format: cell-based
T1 sequence (P08912 whole entry): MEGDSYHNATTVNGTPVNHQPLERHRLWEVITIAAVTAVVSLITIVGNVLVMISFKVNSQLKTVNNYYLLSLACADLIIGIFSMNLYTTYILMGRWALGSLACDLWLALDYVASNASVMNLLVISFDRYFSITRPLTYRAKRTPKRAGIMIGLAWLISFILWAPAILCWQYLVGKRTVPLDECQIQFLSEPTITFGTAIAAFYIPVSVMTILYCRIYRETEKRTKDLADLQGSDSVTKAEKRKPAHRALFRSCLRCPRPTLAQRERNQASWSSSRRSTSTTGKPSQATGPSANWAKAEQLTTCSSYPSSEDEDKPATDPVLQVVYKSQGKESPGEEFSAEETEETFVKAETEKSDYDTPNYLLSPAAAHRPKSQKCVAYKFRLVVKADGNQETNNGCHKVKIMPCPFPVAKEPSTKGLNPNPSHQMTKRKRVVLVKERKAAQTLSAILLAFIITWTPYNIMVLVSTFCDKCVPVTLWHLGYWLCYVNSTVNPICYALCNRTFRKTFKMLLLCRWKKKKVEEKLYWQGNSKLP

[2] = molecular target: T2, Muscarinic acetylcholine receptor M5 (Homo sapiens) (UniProt P08912); test: Antagonist activity at human muscarinic M5 receptor expressed in CHO cells assessed as minimal acetylcholine response by calcium mobilisation assay relative to control; format: cell-based; design: concentration or dose not given beside the values
T2 sequence (whole entry): T1 sequence (P08912 whole entry)

[3] = Lipophilicity, logD of the compound at pH 7.4; format: physicochemical; settings: buffer
[4] = Intrinsic clearance in human; format: ADME
[5] = Intrinsic clearance in rat; format: ADME
[6] = molecular target: T3, Muscarinic acetylcholine receptor M5 (Rattus norvegicus, UniProt P08911); test: Antagonist activity at rat muscarinic M5 receptor expressed in CHO cells in the presence of acetylcholine by calcium mobilisation assay; format: cell-based
T3 sequence (P08911 whole entry): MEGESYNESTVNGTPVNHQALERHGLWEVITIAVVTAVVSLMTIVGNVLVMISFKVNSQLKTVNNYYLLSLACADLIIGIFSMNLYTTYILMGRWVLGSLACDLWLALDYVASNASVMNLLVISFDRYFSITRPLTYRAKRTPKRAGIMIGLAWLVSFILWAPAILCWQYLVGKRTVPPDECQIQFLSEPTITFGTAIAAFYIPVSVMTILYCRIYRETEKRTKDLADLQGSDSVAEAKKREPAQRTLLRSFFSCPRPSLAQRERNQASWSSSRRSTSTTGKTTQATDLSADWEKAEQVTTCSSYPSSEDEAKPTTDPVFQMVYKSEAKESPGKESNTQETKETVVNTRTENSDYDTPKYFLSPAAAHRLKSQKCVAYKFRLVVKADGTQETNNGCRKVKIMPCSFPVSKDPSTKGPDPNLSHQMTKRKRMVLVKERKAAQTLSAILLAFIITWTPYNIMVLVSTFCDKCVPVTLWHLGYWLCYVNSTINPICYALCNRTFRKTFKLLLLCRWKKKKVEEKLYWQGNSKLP

[7] = molecular target: T4, Muscarinic acetylcholine receptor M5 (Rattus norvegicus) (UniProt P08911); test: Antagonist activity at rat muscarinic M5 receptor expressed in CHO cells assessed as minimal acetylcholine response by calcium mobilisation assay relative to control; format: cell-based; design: scale not given: the % may be the effect or the level left; settings: filed as antagonist
T4 sequence (whole entry): T3 sequence (P08911 whole entry)

[8] = molecular target: T5, Muscarinic acetylcholine receptor M1 (Homo sapiens, UniProt P11229); test: Antagonist activity at human muscarinic M1 receptor expressed in CHO cells in the presence of acetylcholine by calcium mobilisation assay; format: cell-based
T5 sequence (P11229 whole entry): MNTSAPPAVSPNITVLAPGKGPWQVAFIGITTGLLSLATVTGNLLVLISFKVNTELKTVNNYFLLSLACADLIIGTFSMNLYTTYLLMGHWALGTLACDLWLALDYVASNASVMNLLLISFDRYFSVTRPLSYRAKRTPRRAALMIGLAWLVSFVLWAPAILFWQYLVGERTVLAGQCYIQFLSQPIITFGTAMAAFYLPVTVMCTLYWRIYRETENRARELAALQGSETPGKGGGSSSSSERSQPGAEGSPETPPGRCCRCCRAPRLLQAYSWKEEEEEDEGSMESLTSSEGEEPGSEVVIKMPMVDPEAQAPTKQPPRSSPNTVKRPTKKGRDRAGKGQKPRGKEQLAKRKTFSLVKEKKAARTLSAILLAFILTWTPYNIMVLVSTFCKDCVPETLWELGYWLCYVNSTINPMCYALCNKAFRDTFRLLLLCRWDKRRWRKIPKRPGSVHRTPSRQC

[9] = molecular target: T6, Muscarinic acetylcholine receptor M1 (Homo sapiens) (UniProt P11229); test: Antagonist activity at human muscarinic M1 receptor expressed in CHO cells assessed as minimal acetylcholine response by calcium mobilisation assay relative to control; format: cell-based; design: scale not given: the % may be the effect or the level left; settings: filed as antagonist
T6 sequence (whole entry): T5 sequence (P11229 whole entry)

[10] = molecular target: T7, Muscarinic acetylcholine receptor M4 (Homo sapiens, UniProt P08173); test: Antagonist activity at human muscarinic M4 receptor expressed in CHO cells in the presence of acetylcholine by calcium mobilisation assay; format: cell-based
T7 sequence (P08173 whole entry): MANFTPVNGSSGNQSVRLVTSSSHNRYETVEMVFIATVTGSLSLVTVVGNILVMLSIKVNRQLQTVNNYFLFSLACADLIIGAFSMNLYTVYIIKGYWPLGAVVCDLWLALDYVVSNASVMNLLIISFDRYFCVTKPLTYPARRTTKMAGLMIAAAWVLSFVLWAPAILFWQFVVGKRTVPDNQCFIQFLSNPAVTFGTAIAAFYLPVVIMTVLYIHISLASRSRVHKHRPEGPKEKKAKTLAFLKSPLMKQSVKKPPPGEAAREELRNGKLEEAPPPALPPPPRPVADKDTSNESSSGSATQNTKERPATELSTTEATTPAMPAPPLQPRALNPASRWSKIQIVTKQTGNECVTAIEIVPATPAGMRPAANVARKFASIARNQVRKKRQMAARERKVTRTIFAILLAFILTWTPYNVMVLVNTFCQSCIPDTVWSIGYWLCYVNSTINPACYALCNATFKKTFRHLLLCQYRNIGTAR

[11] = Unbound fraction in rat plasma; format: ADME, cell-free
[12] = Unbound fraction in human plasma; format: ADME, cell-free
[13] = Unbound fraction in rat brain; format: ADME, tissue-based
[14] = Apparent permeability in MDCK-MDR1 cells; format: ADME, cell-based, Canis lupus familiaris; settings: dog
[15] = test system: P-glycoprotein; test: Efflux ratio of permeability in MDCK-MDR1 cells expressing P-glycoprotein; format: ADME, cell-based, Canis lupus familiaris; settings: dog
[16] = molecular target: T4, Muscarinic acetylcholine receptor M5 (Rattus norvegicus); test: Antagonist activity at rat muscarinic M5 receptor assessed as minimal acetylcholine response relative to control; design: scale not given: the % may be the effect or the level left; settings: filed as antagonist
[17] = molecular target: T2, Muscarinic acetylcholine receptor M5 (Homo sapiens); test: Potency index, ratio of VU6027831 IC50 to test compound IC50 for antagonist activity at human M5 muscarinic receptor
[18] = molecular target: T2, Muscarinic acetylcholine receptor M5 (Homo sapiens); test: as §1; format: cell-based

Structure (SMILES)	IC50 [1] [nM]	Activity ([2]; filed as antagonist) [%]	logD [3]	CLint scaled [4] [mL/min/kg]	CLint scaled [5] [mL/min/kg]	also measured
O=C(Nc1ccc2scnc2c1)[C@H]1CCN(S(=O)(=O)c2ccc3c(c2)CCO3)C1	440	3	2.51	64	201	–
O=C(Nc1ccc2scnc2c1)[C@@H]1CCN(S(=O)(=O)c2ccc3ncccc3c2)C1	–	3	1.99	42	191	–
Cc1ccc(S(=O)(=O)N2CC[C@@H](C(=O)Nc3ccc4scnc4c3)C2)cn1	> 10000	41	1.85	–	–	–
O=C(Nc1ccc2scnc2c1)C12CC1CN(S(=O)(=O)c1ccc3c(c1)CCO3)C2 (racemic)	270	2	2.88	115	396	–
C[C@H]1CN(S(=O)(=O)c2ccc3c(c2)CCO3)C[C@@H]1C(=O)Nc1ccc2scnc2c1	87	2	2.94	5	51	IC50 [6]: 190 nM; Activity [7]: 2%; IC50 [8]: > 10000 nM; Activity [9]: 8%; IC50 [10]: > 10000 nM; Fu [11]: 0.01; Fu [12]: 0.03; fraction unbound [13]: 0.05; Papp [14]: 1.75 10^-6 cm/s; efflux ratio [15]: 32.3
O=C(Nc1ccc2scnc2c1)C1CCN(S(=O)(=O)c2ccc3c(c2)CCO3)CC1	–	–	–	–	–	Activity [16]: 3%
O=C(Nc1ccc2scnc2c1)[C@@H]1CCN(S(=O)(=O)c2ccc3c(c2)CCO3)C1	21	2	2.53	50.6	356	Activity ([2]; filed as antagonist, tested as the 2H-labelled form): 2%
Cn1cc(S(=O)(=O)N2CC[C@@H](C(=O)Nc3ccc4scnc4c3)C2)c(C(F)(F)F)n1	> 10000	–	2.62	–	–	Activity [2]: 59%
O=C(Nc1ccc2scnc2c1)C1CCN(S(=O)(=O)c2ccc3c(c2)CCO3)C1 (stereo unspecified)	47	2	–	72	252	Ratio IC50 [17]: 2
O=C(Nc1ccc2scnc2c1)[C@@H]1CCN(S(=O)(=O)c2cccnc2)C1	–	–	1.65	–	–	Activity [18]: inactive
O=C(Nc1ccc2scnc2c1)[C@@H]1CCN(S(=O)(=O)c2ccc3ncsc3c2)C1	–	2	2.04	33	51	IC50 [6]: 550 nM; Activity [7]: 4%; Fu [11]: 0.01; Fu [12]: 0.12; fraction unbound [13]: 0.08
[2H]C1([2H])Oc2ccc(S(=O)(=O)N3CC[C@@H](C(=O)Nc4ccc5scnc5c4)C3)cc2C1([2H])[2H]	–	–	2.45	50	168	–
Cc1nn(C)cc1S(=O)(=O)N1CC[C@@H](C(=O)Nc2ccc3scnc3c2)C1	–	6	1.62	–	–	–
O=C(Nc1ccc2scnc2c1)[C@@H]1CCN(S(=O)(=O)c2ccc(Cl)nc2)C1	–	–	2.41	–	–	Activity [18]: inactive
C[C@@H]1CN(S(=O)(=O)c2ccc3c(c2)CCO3)C[C@@H]1C(=O)Nc1ccc2scnc2c1	35	3	2.88	202	769	–
O=C(Nc1ccc2scnc2c1)[C@H]1CN(S(=O)(=O)c2ccc3c(c2)CCO3)C[C@@H]1C(F)(F)F	–	–	3.65	–	–	Activity [18]: inactive
O=C(Nc1ccc2scnc2c1)[C@@H]1CCN(S(=O)(=O)c2ccc3c(c2)OCO3)C1	–	3	2.43	30	267	–
O=C(Nc1ccc2scnc2c1)[C@@H]1CCN(S(=O)(=O)c2ccc3c(c2)CCC3)C1	–	31	3.54	–	–	–
O=C(Nc1ccc2scnc2c1)C1CN(S(=O)(=O)c2ccc3c(c2)CCO3)C1	–	2	–	61	301	–
